Assay: xn = mol fraction of the nth substance listed
Settings: Liquid, Vibrating tube method

CC(C)(C)Cl [2-chloro-2-methylpropane] + CCCCCCC
mass density [kg/m3]
Settings	303.15 K	313.15 K	323.15 K
100 kPa, x2 = 0.0554	818.78	806.66	794.33
100 kPa, x2 = 0.1017	809.14	797.28	785.21
100 kPa, x2 = 0.2004	789.72	778.36	766.79
100 kPa, x2 = 0.3016	771.27	760.35	749.26
100 kPa, x2 = 0.4097	753.07	742.58	731.93
100 kPa, x2 = 0.498	739.29	729.11	718.79
100 kPa, x2 = 0.5983	724.71	714.88	704.9
100 kPa, x2 = 0.7017	710.79	701.3	691.67
100 kPa, x2 = 0.7995	698.55	689.36	680.04
100 kPa, x2 = 0.9032	686.4	677.52	668.52
100 kPa, x2 = 0.9482	681.35	672.6	663.72
2000 kPa, x2 = 0.0554	821.47	809.52	797.48
2000 kPa, x2 = 0.1017	811.82	800.05	788.27
2000 kPa, x2 = 0.2004	792.22	781	769.77
2000 kPa, x2 = 0.3016	773.66	763.03	752.1
2000 kPa, x2 = 0.4097	755.51	745.07	734.59
2000 kPa, x2 = 0.498	741.69	731.68	721.4
2000 kPa, x2 = 0.5983	727.08	717.4	707.53
2000 kPa, x2 = 0.7017	713.01	703.64	694.11
2000 kPa, x2 = 0.7995	700.74	691.69	682.44
2000 kPa, x2 = 0.9032	688.51	679.76	670.78
2000 kPa, x2 = 0.9482	683.42	674.8	665.93
5000 kPa, x2 = 0.0554	825.59	813.98	802.32
5000 kPa, x2 = 0.1017	815.8	804.42	793.03
5000 kPa, x2 = 0.2004	796.16	785.28	774.28
5000 kPa, x2 = 0.3016	777.4	767.03	756.52
5000 kPa, x2 = 0.4097	759.02	749.04	738.91
5000 kPa, x2 = 0.498	745.08	735.25	725.49
5000 kPa, x2 = 0.5983	730.47	720.98	711.44
5000 kPa, x2 = 0.7017	716.37	707.1	697.95
5000 kPa, x2 = 0.7995	703.86	695.02	686.17
5000 kPa, x2 = 0.9032	691.56	682.92	674.4
5000 kPa, x2 = 0.9482	686.48	677.95	669.52
7000 kPa, x2 = 0.0554	828.15	816.75	805.4
7000 kPa, x2 = 0.1017	818.38	807.19	796.06
7000 kPa, x2 = 0.2004	798.56	787.92	777.25
7000 kPa, x2 = 0.3016	779.88	769.57	759.21
7000 kPa, x2 = 0.4097	761.39	751.4	741.54
7000 kPa, x2 = 0.498	747.28	737.68	728.22
7000 kPa, x2 = 0.5983	732.58	723.34	714.07
7000 kPa, x2 = 0.7017	718.4	709.4	700.51
7000 kPa, x2 = 0.7995	705.86	697.26	688.53
7000 kPa, x2 = 0.9032	693.5	685.15	676.71
7000 kPa, x2 = 0.9482	688.38	680.11	671.83
10000 kPa, x2 = 0.0554	832	820.74	809.88
10000 kPa, x2 = 0.1017	822.04	811.13	800.36
10000 kPa, x2 = 0.2004	802.32	791.72	781.49
10000 kPa, x2 = 0.3016	783.29	773.41	763.36
10000 kPa, x2 = 0.4097	764.7	754.97	745.37
10000 kPa, x2 = 0.498	750.6	741.18	731.85
10000 kPa, x2 = 0.5983	735.66	726.57	717.55
10000 kPa, x2 = 0.7017	721.43	712.75	703.96
10000 kPa, x2 = 0.7995	708.91	700.32	691.76
10000 kPa, x2 = 0.9032	696.4	688.14	679.93
10000 kPa, x2 = 0.9482	691.28	683.1	674.96
20000 kPa, x2 = 0.0554	843.57	833.07	823.12
20000 kPa, x2 = 0.1017	833.51	823.38	813.35
20000 kPa, x2 = 0.2004	813.29	803.53	794.06
20000 kPa, x2 = 0.3016	793.94	784.77	775.49
20000 kPa, x2 = 0.4097	774.96	766.04	757.06
20000 kPa, x2 = 0.498	760.6	751.92	743.41
20000 kPa, x2 = 0.5983	745.27	737.01	728.54
20000 kPa, x2 = 0.7017	730.77	722.7	714.57
20000 kPa, x2 = 0.7995	717.92	709.98	702.11
20000 kPa, x2 = 0.9032	705.2	697.53	689.93
20000 kPa, x2 = 0.9482	699.94	692.28	684.86
30000 kPa, x2 = 0.0554	853.99	844.1	834.6
30000 kPa, x2 = 0.1017	843.73	834.2	824.82
30000 kPa, x2 = 0.2004	823.05	814.01	805.07
30000 kPa, x2 = 0.3016	803.47	794.87	786.11
30000 kPa, x2 = 0.4097	784.21	775.79	767.3
30000 kPa, x2 = 0.498	769.56	761.41	753.1
30000 kPa, x2 = 0.5983	753.98	746.13	738.15
30000 kPa, x2 = 0.7017	739.18	731.52	723.78
30000 kPa, x2 = 0.7995	726.07	718.59	711.07
30000 kPa, x2 = 0.9032	713.06	705.89	698.64
30000 kPa, x2 = 0.9482	707.83	700.51	693.47
40000 kPa, x2 = 0.0554	863.35	854.03	844.99
40000 kPa, x2 = 0.1017	852.88	843.96	835.05
40000 kPa, x2 = 0.2004	832.1	823.46	814.92
40000 kPa, x2 = 0.3016	812.13	804.15	795.67
40000 kPa, x2 = 0.4097	792.62	784.83	776.64
40000 kPa, x2 = 0.498	777.76	770.02	762.18
40000 kPa, x2 = 0.5983	761.89	754.48	746.92
40000 kPa, x2 = 0.7017	746.9	739.67	732.28
40000 kPa, x2 = 0.7995	733.47	726.54	719.25
40000 kPa, x2 = 0.9032	720.32	713.51	706.58
40000 kPa, x2 = 0.9482	714.92	708.05	701.31
50000 kPa, x2 = 0.0554	871.81	862.97	854.39
50000 kPa, x2 = 0.1017	861.28	852.84	844.39
50000 kPa, x2 = 0.2004	840.18	832.15	823.81
50000 kPa, x2 = 0.3016	820.14	812.43	804.37
50000 kPa, x2 = 0.4097	800.42	792.76	785.03
50000 kPa, x2 = 0.498	785.33	777.91	770.31
50000 kPa, x2 = 0.5983	769.3	762.19	754.82
50000 kPa, x2 = 0.7017	753.99	747.09	739.94
50000 kPa, x2 = 0.7995	740.47	733.8	726.85
50000 kPa, x2 = 0.9032	727.09	720.62	713.88
50000 kPa, x2 = 0.9482	721.65	715.12	708.52
60000 kPa, x2 = 0.0554	879.84	871.31	863.07
60000 kPa, x2 = 0.1017	869.24	861.07	852.83
60000 kPa, x2 = 0.2004	847.92	840.18	832.16
60000 kPa, x2 = 0.3016	827.68	820.2	812.47
60000 kPa, x2 = 0.4097	807.57	800.35	792.82
60000 kPa, x2 = 0.498	792.31	785.26	778.02
60000 kPa, x2 = 0.5983	776.11	769.28	762.27
60000 kPa, x2 = 0.7017	760.58	753.92	747.09
60000 kPa, x2 = 0.7995	746.99	740.45	733.8
60000 kPa, x2 = 0.9032	733.41	727.14	720.67
60000 kPa, x2 = 0.9482	727.85	721.6	715.25
65000 kPa, x2 = 0.0554	883.64	875.25	867.24
65000 kPa, x2 = 0.1017	872.96	864.95	856.84
65000 kPa, x2 = 0.2004	851.56	843.84	836.1
65000 kPa, x2 = 0.3016	831.16	823.81	816.3
65000 kPa, x2 = 0.4097	810.96	803.85	796.58
65000 kPa, x2 = 0.498	795.68	788.68	781.6
65000 kPa, x2 = 0.5983	779.38	772.62	765.81
65000 kPa, x2 = 0.7017	763.77	757.22	750.52
65000 kPa, x2 = 0.7995	749.98	743.57	737.12
65000 kPa, x2 = 0.9032	736.38	730.17	723.9
65000 kPa, x2 = 0.9482	730.82	724.57	718.48
